Drawing on US11390609B2, “Rho-associated protein kinase inhibitor, pharmaceutical composition comprising same, and preparation method and use thereof” (BEIJING TIDE PHARMACEUTICAL CO., LTD., priority 2017, dated 2022), this text covers IC50 for 21 molecules.

As usually defined, the IC50 is the concentration at which inhibition is half-maximal. Low values mean higher potency, high ones lower potency.

For one assay, the target named is ROCK2 (Homo sapiens, UniProt O75116). The assay can be described thus: ROCK2 kinase IC50 assay (CISBIO HTRF KinEASE-STK S2 kit). The assay is classed as biochemical. Particulars: incubated at room temperature for 2 hours. The protocol: The kinase IC50 was determined by a commercialized CISBIO kinase detection kit, HTRF KinEASE-STK S2 kit (62ST2PEC). ROCK2 (01-119) employed in the reaction was purchased from Carna Biosciences.
Before the assay, the following working solutions as needed were formulated with corresponding reagents according to the instruction of the kinase detection kit: 1×kinase buffer, 5×STK-52 substrate working solution (1.5 μM) and 5×ATP working solution (1.5 μM), 5×ROCK2 kinase working solution, 4×Streptavidin-XL665 working solution, and 4×STK-Ab-Cryptate 2 detection solution. Then the assay was performed according to the following procedure.
A solution of a compound at a concentration of 10000 nM was prepared with the 1×kinase buffer containing 2.5% DMSO. Gradient dilution of the solution of the compound was performed with the kinase buffer containing DMSO, so as to obtain solutions of a test compound at 9 different concentrations. In addition to wells of test compounds, a positive well (containing all the reagents except the compound) and a negative well (containing all the reagents except the test compound and kinase) were set. Except for the control wells (positive and negative wells), a solution of a test compound (4 μL) was added to each of the reaction wells, and a solution of 2.5% DMSO was added to the control wells. Then the substrate ([…], 2 μL. 5×STK-S2 substrate working solution) was added to each of the reaction wells. The 5×ROCK2 kinase working solution (2 μL, containing 1.4 ng ROCK2 kinase) was added to each of the reaction wells except for the negative well, the volume of which was made up with the 1×kinase buffer (2 μL). The 5×ATP working solution (2 μL) was added to each of the reaction wells, and the mixtures were incubated at room temperature for 2 hours. After the kinase reaction was complete, the 4×Streptavidin-XL665 working solution was added to each of the reaction wells, the solutions were mixed, followed by immediate addition of the 4×STK-Ab-Cryptate 2 detection solution (5 μL), and the mixtures were incubated at room temperature for 1 hour. The fluorescence signal was read on ENVISION (Perkinelmer) (excitation wavelength: 320 nm, and emission wavelength: 665 nm and 615 nm). The inhibitory rate in each well was calculated based on the fluorescence intensity value: ER (Emission Ratio)=(fluorescence intensity at 665 nm/fluorescence intensity at 615 nm); inhibitory rate=(ERpositive−ERtest compound)/(ERpositive−ERnegative)*100%. Curves were plotted and fitted to obtain the median inhibitory concentration (IC50) of each teat compound with the PRISM 5.0 software.
In general terms: TR-FRET usually uses a lanthanide donor and a delayed reading to cut background.

The target of another assay is ROCK1 (Homo sapiens (Human), UniProt Q13464). Description: ROCK1 kinase IC50 assay (biological test method similar to the ROCK2 assay). The format is biochemical. The procedure, abridged: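 Compound dilution series (9 concentrations, top solution 10000 nM, DMSO-containing buffer) incubated 2 h at room temperature with kinase, STK-S2 substrate and ATP (5× working solutions of 1.5 µM each). Phosphorylation detected by HTRF (665/615 nm emission ratio) after 1 h; inhibition relative to full-reaction and kinase-free wells, fitted for IC50.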

Some results are limits rather than exact numbers.

Sequence of ROCK1 (Q13464 whole entry, species assumed): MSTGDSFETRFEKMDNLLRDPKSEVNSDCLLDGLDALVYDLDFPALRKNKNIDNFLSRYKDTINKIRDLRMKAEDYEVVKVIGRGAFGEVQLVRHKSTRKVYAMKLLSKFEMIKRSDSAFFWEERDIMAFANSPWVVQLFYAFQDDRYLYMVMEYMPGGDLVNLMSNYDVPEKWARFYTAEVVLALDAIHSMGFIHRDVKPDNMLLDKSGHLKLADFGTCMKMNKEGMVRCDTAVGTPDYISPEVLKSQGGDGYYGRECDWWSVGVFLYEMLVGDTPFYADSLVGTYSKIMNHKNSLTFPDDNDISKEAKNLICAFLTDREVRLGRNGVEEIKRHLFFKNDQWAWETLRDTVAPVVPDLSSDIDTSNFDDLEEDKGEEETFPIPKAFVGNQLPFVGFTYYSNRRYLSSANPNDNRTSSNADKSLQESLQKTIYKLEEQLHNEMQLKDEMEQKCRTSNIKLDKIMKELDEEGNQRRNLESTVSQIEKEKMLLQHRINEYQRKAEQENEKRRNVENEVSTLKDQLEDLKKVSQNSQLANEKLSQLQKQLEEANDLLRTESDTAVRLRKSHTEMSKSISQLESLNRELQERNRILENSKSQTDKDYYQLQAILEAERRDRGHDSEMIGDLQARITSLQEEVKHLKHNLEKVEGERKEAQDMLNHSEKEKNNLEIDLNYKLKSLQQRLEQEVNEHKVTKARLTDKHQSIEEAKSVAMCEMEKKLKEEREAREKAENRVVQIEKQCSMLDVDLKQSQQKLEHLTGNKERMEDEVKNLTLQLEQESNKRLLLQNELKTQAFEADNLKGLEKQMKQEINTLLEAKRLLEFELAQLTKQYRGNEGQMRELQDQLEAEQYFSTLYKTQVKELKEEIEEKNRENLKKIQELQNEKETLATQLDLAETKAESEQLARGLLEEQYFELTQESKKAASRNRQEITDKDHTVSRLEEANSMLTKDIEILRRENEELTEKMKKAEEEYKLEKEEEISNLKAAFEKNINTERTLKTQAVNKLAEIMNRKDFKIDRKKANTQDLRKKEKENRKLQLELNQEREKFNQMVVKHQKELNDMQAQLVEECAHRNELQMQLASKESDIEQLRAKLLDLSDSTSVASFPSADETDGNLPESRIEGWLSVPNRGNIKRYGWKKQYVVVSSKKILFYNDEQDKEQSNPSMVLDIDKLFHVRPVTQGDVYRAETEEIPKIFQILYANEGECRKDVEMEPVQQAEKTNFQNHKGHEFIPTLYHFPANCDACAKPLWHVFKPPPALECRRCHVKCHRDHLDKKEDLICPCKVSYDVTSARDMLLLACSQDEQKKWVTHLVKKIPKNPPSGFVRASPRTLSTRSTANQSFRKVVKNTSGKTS

On to `Cn1c(C(=O)N2CC(F)(F)C2)cc2ccc(-c3nc(Nc4ccc(-c5cn[nH]c5)cc4)c4ccsc4n3)cc21` [TDI01947, (6-(4-((4-(1H-pyrazol-4-yl)phenyl)amino)thieno[2,3-d]pyrimidin-2-yl)-1-methyl-1H-indol-2-yl)(3,3-difluoroazetidin-1-yl)methanone], for which the IC50 at ROCK2 was 88 nM; against ROCK1 it was more than 10000 nM.

Turning to `Cn1c(C(=O)N2CC(F)(F)C2)cc2ccc(-c3nc(Nc4ccc(-c5cn[nH]c5)cc4)c4sccc4n3)cc21` [TDI01508, (6-(4-((4-(1H-pyrazol-4-yl)phenyl)amino)thieno[3,2-d]pyrimidin-2-yl)-1-methyl-1H-indol-2-yl)(3,3-difluoroazetidin-1-yl)methanone], the figures for the IC50 against ROCK2 and against ROCK1 were 159 nM and more than 10000 nM, respectively. Consider `O=C(OC1CC(F)(F)C1)N1Cc2ccc(-c3ncc(F)c(Nc4ccc5[nH]ncc5c4)n3)cc2C1` [TDI01613, 3,3-difluorocyclobutyl 5-(4-((1H-indazol-5-yl)amino)-5-fluoropyrimidin-2-yl)isoindoline-2-carboxylate], for which the half-inhibitory concentration (IC50) against ROCK2 was 27 nM; on ROCK1, more than 10000 nM. On to `CC1(C(=O)N2CCc3ccc(-c4nccc(Nc5ccc(-c6cn[nH]c6)cc5)n4)cc3C2)CC(F)(F)C1` [TDI01676, (7-(4-((4-(1H-pyrazol-4-yl)phenyl)amino)pyrimidin-2-yl)-3,4-dihydroisoquinolin-2(1H)-yl)(3,3-difluoro-1-methylcyclobutyl) methanone], for which the IC50 was 242 nM against ROCK2 and more than 10000 nM against ROCK1.

As for `CC(C)NC(=O)c1cc2ccc(-c3nc(Nc4ccc(-c5cn[nH]c5)cc4)c4sccc4n3)cc2s1` [TDI01439, 6-(4-((4-(1H-pyrazol-4-yl)phenyl)-amino)thieno-[3,2-d]pyrimidin-2-yl)-N-isopropyl-benzo-[b]thiophene-2-carboxamide], the IC50 is 203 nM against ROCK2 and more than 10000 nM at ROCK1. For `CN1CCC(OC(=O)N2Cc3ccc(-c4nccc(Nc5ccc(-c6cn[nH]c6)cc5)n4)cc3C2)C1` (stereo not shown) [TDI01552, 1-methylpyrrolidin-3-yl5-(4-((4-(1H-pyrazol-4-yl)phenyl)amino)pyrimidin-2-yl)isoindoline-2-carboxylate], the figures for the IC50 on ROCK2 and against ROCK1 were 51 nM and 2950 nM, respectively. For `C=Cn1c(C(=O)N2CC(F)(F)C2)cc2ccc(-c3nccc(Nc4ccc(-c5cn[nH]c5)cc4)n3)cc21` [TDI01923, (6-(4-((4-(1H-pyrazol-4-yl)phenyl)amino)pyrimidin-2-yl)-1-vinyl-1H-indol-2-yl)(3,3-difluoroazetidin-1-yl)methanone], in that order: 50 nM and more than 10000 nM. With `O=C(c1cc2ccc(-c3nc(Nc4ccc(-c5cn[nH]c5)cc4)c4sccc4n3)cc2s1)N1CC(F)(F)C1` [TDI01525, (6-(4-((4-(1H-pyrazol-4-yl)phenyl)-amino)thieno-[3,2-d]-pyrimidin-2-yl)benzo[b]-thiophen-2-yl)(3,3-difluoro-azetidin-1-yl)methanone], the IC50 against ROCK2 is 335 nM; at ROCK1, more than 10000 nM. In the case of `CN(C)C(=O)c1cc2ccc(-c3nccc(Nc4ccc(-c5cn[nH]c5)c(F)c4)n3)cc2[nH]1` [TDI01842, 6-(4-((3-fluoro-4-(1H-pyrazol-4-yl)phenyl)ami-no)pyrimidin-2-yl)-N, N-dimethyl-1H-indole-2-carboxamide], the IC50 at ROCK2 was 120 nM; at ROCK1 it was 3000 nM. In the case of `CC(O)C(=O)N1Cc2ccc(-c3nccc(Nc4ccc(-c5cn[nH]c5)cc4)n3)cc2C1` (stereo not shown) [TDI01989, 1-(5-(4-((4-(1H-pyrazol-4-yl)phenyl)amino)pyrimidin-2-yl)isoindolin-2-yl)-2-hydroxypropan-1-one], the IC50 is 385 nM against ROCK2 and more than 10000 nM on ROCK1. `O=C(C1CC(F)(F)C1)N1Cc2ccc(-c3ncc(F)c(Nc4ccc(-c5cn[nH]c5)cc4F)n3)cc2C1` [TDI01598, (3,3-difluorocyclobutyl)(5-(5-fluoro-4-((2-fluoro-4-(1H-pyrazol-4-yl)phenyl)amino)pyrimidin-2-yl)isoindolin-2-yl)methanone]: the IC50 on ROCK2 was 216 nM; on ROCK1, more than 10000 nM. Turning to `O=C(C1CC(F)(F)C1)N1CCc2cc(-c3ncc(F)c(Nc4ccc(-c5cn[nH]c5)cc4)n3)ccc21` [TDI01618A, (5-(4-((4-(1H-pyrazol-4-yl)phenyl)amino)-5-fluoropyrimidin-2-yl)indolin-1-yl)(3,3-difluorocyclobutyl) methanone], the IC50 was 129 nM against ROCK2 and more than 10000 nM against ROCK1. For `N#CC1CN(C(=O)c2cc3ccc(-c4nccc(Nc5ccc(-c6cn[nH]c6)cc5)n4)cc3s2)C1` [TDI01500, 1-(6-(4-((4-(1H-pyrazol-4-yl)phenyl)-amino)-pyrimidin-2-yl)benzo[b]-thiophene-2-carbonyl)-azetidine-3-carbonitrile], the IC50 was 13 nM on ROCK2 and more than 10000 nM at ROCK1.

At ROCK2, `Cc1cc2ccc(-c3nccc(Nc4ccc5[nH]ncc5c4)n3)cc2[nH]1` [TDI01901, N-(2-(2-methyl-1H-indol-6-yl)pyrimidin-4-yl)-1H-indazol-5-amine] came in with an IC50 of 387 nM. On ROCK2, `O=C(NC1CCCC(N2CCOCC2)C1)c1cc2ccc(-c3nccc(Nc4ccc(-c5cn[nH]c5)cc4)n3)cc2[nH]1` (stereo not shown) [TDI01878, 6-(4-((4-(1H-pyrazol-4-yl)phenyl)-amino)-pyrimidin-2-yl)-N-(3-morpholino-cyclohexyl)-1H-indole-2-carboxamide] came in with an IC50 of 9 nM. For the molecule `Cn1c(-n2ccnc2)cc2ccc(-c3nccc(Nc4ccc(-c5cn[nH]c5)c(F)c4)n3)cc21` [TDI01684, 2-(2-(1H-imidazol-1-yl)-1-methyl-1H-indol-6-yl)-N-(3-fluoro-4-(1H-pyrazol-4-yl)phenyl)pyrimidin-4-amine], on ROCK2, the IC50 came to 171 nM. `CC(C)(C)OC(=O)n1ncc2cc(NC(=O)c3cc4ccc(-c5nccc(Nc6ccc7[nH]ncc7c6)n5)cc4[nH]3)ccc21` [TDI01248, tert-butyl 5-(6-(4-((1H-indazol-5-yl)amino)-pyrimidin-2-yl)-1H-indole-2-carboxamido)-1H-indazole-1-carboxylate] displayed an IC50 on ROCK2 of 500 nM. The same measure, in the same setting: the same measure for `CN(C)C(=O)c1cc2ccc(-c3nccc(Nc4ccc5[nH]ncc5c4)n3)cc2[nH]1` [TDI01353, 6-(4-((1H-indazol-5-yl)amino)-pyrimidin-2-yl)-N,N-dimethyl-1H-indole-2-carboxamide]: 307 nM.

Regarding `COC(=O)C(Cc1c[nH]cn1)NC(=O)c1cc2ccc(-c3nccc(Nc4ccc5[nH]ncc5c4)n3)cc2[nH]1` (stereo not shown) [TDI01385, methyl (6-(4-((1H-indazol-5-yl)amino)-pyrimidin-2-yl)-1H-indole-2-carbonyl)-histidinate], on ROCK2, the IC50 amounted to 107 nM. Molecule `O=C(C1CC(F)(F)C1)N1CCc2ccc(-c3nccc(Nc4ccc5[nH]ncc5c4)n3)cc2C1` [TDI01682, (7-(4-((1H-indazol-5-yl)amino)pyrimidin-2-yl)-3,4-dihydroisoquinolin-2(1H)-yl)(3,3-difluorocyclobutyl)methanone] registered an IC50 against ROCK2 of 360 nM. On ROCK2, `COc1cc(Nc2ccc3[nH]ncc3c2)nc(-c2ccc3cc(C(=O)Nc4ccnnc4)[nH]c3c2)n1` [TDI01801, 6-(4-((1H-indazol-5-yl)amino)-6-methoxy-pyrimidin-2-yl)-N-(pyridazin-4-yl)-1H-indole-2-carboxamide] returned an IC50 of 68 nM.
